Data on 24 compounds can be found in ChEMBL document CHEMBL2150939, “Synthesis and cytotoxicity of novel ursolic acid derivatives containing an acyl piperazine moiety” (Eur J Med Chem, 2012).

Data set [1] concerns MGC-803. As to the kind of experiment: Growth inhibition of human MGC803 cells at 10 uM after 72 hrs by MTT assay. Format: functional. The conditions noted are these: MGC-803, 72 h, read-out: GI.
Data set [2] concerns Bcap37. Briefly: Growth inhibition of human Bcap37 cells at 10 uM after 72 hrs by MTT assay. Format: functional. As to conditions: Bcap37, 72 h, read-out: GI.
Data set [3] can be described thus: Growth inhibition of mouse NIH/3T3 cells at 10 uM after 72 hrs by MTT assay. Format: cell-based, NIH3T3. The conditions noted are these: read-out: GI.
Data set [4] has as its system MGC-803. As to the kind of experiment: Antiproliferative activity against human MGC803 cells after 72 hrs by MTT assay. As to conditions: MGC-803, 72 h. Format: functional, cell-based.
The test system of data set [5] is Bcap37. Briefly: Antiproliferative activity against human Bcap37 cells after 72 hrs by MTT assay. Format: functional, cell-based. As to conditions: Bcap37, 72 h.

Take `C[C@H]1[C@H](C)CC[C@]2(C(=O)OCCN3CCN(C(=O)c4cccnc4)CC3)CC[C@]3(C)C(=CC[C@@H]4[C@@]5(C)CC[C@H](O)C(C)(C)[C@@H]5CC[C@]43C)[C@H]12`: the results for the inhibition of growth at 10 µM in data set [1] and in data set [2] were 22% and 24.5%, respectively. For the same compound, the inhibition at 72 h, 10 µM in data set [3] came out at 52.3%.
The matching figures for `C[C@H]1[C@H](C)CC[C@]2(C(=O)OCCN3CCN(C(=O)c4ccnc(Cl)c4)CC3)CC[C@]3(C)C(=CC[C@@H]4[C@@]5(C)CC[C@H](O)C(C)(C)[C@@H]5CC[C@]43C)[C@H]12`: 24.1%, 19% and 44.3%.
Consider `CC(C)c1ccc(C(=O)N2CCN(CCOC(=O)[C@]34CC[C@@H](C)[C@H](C)[C@H]3C3=CC[C@@H]5[C@@]6(C)CC[C@H](O)C(C)(C)[C@@H]6CC[C@@]5(C)[C@]3(C)CC4)CC2)cc1`, for which the inhibition of growth at 10 µM was found to be 72.3% in data set [1] and 45.5% in data set [2]. The inhibition at 72 h, 10 µM in data set [3] was determined as 5.5%. Also, the 50% inhibitory concentration (IC50) was found to be 5.02 µM in data set [4] and 11.8 µM in data set [5] (read-out: IC50).
The matching figures for `CCCCC(CC)C(=O)N1CCN(CCOC(=O)[C@]23CC[C@@H](C)[C@H](C)[C@H]2C2=CC[C@@H]4[C@@]5(C)CC[C@H](O)C(C)(C)[C@@H]5CC[C@@]4(C)[C@]2(C)CC3)CC1` (stereo partly specified): 80.8%, 68.6%, 54.5%, 6.89 µM and 4.16 µM.
The like results for `C[C@H]1[C@H](C)CC[C@]2(C(=O)OCCN3CCN(C(=O)c4ccccc4Cl)CC3)CC[C@]3(C)C(=CC[C@@H]4[C@@]5(C)CC[C@H](O)C(C)(C)[C@@H]5CC[C@]43C)[C@H]12` were, in that order, 93%, 69.1%, 29.8%, 4.66 µM and 7.26 µM.
For `C[C@H]1[C@H](C)CC[C@]2(C(=O)OCCN3CCN(C(=O)c4ccccc4)CC3)CC[C@]3(C)C(=CC[C@@H]4[C@@]5(C)CC[C@H](O)C(C)(C)[C@@H]5CC[C@]43C)[C@H]12`, the results for the inhibition of growth at 10 µM in data set [1] and in data set [2] were 21.4% and 23.9%, respectively. In addition, the inhibition at 72 h, 10 µM in data set [3] stood at 19.1%.
The like results for `C[C@H]1[C@H](C)CC[C@]2(C(=O)OCCN3CCN(C(=O)c4ccc([N+](=O)[O-])cc4)CC3)CC[C@]3(C)C(=CC[C@@H]4[C@@]5(C)CC[C@H](O)C(C)(C)[C@@H]5CC[C@]43C)[C@H]12` were, in that order, 24.3%, 19.1% and 65.4%.
The matching figures for `C=C/C=C/CC(=O)N1CCN(CCOC(=O)[C@]23CC[C@@H](C)[C@H](C)[C@H]2C2=CC[C@@H]4[C@@]5(C)CC[C@H](O)C(C)(C)[C@@H]5CC[C@@]4(C)[C@]2(C)CC3)CC1`: 23.4%, 14.7% and 35%.
As to `C[C@H]1[C@H](C)CC[C@]2(C(=O)OCCN3CCN(C(=O)c4ccc(F)cc4F)CC3)CC[C@]3(C)C(=CC[C@@H]4[C@@]5(C)CC[C@H](O)C(C)(C)[C@@H]5CC[C@]43C)[C@H]12`, the inhibition of growth at 10 µM in data set [1] is 32.1%; in data set [2] it was 60.5%. In addition, the inhibition at 72 h, 10 µM in data set [3] came out at 18.1%. Further, the IC50 stood at 12.5 µM in data set [4] and 8.31 µM in data set [5] (read-out: IC50).
Regarding `C[C@H]1[C@H](C)CC[C@]2(C(=O)OCCN3CCN(C(=O)c4ccc(F)cc4)CC3)CC[C@]3(C)C(=CC[C@@H]4[C@@]5(C)CC[C@H](O)C(C)(C)[C@@H]5CC[C@]43C)[C@H]12`, the results for the inhibition of growth at 10 µM in data set [1] and in data set [2] were 71.8% and 83.7%, respectively. Also, in data set [3], the inhibition at 72 h, 10 µM was 71.3%. The concentration for half-maximal inhibition (IC50) in data set [4] was 7.29 µM; in data set [5] (read-out: IC50), 5.12 µM.
For the compound `C[C@H]1[C@H](C)CC[C@]2(C(=O)OCCN3CCN(C(=O)c4cccc(F)c4)CC3)CC[C@]3(C)C(=CC[C@@H]4[C@@]5(C)CC[C@H](O)C(C)(C)[C@@H]5CC[C@]43C)[C@H]12`, the inhibition of growth at 10 µM in data set [1] worked out at 45.3%; in data set [2], 32.1%. Further, the inhibition at 72 h, 10 µM in data set [3] was determined as 33.5%. Besides, the half-inhibitory concentration (IC50) in data set [4] is over 20 µM.
The like results for `C[C@H]1[C@H](C)CC[C@]2(C(=O)OCCBr)CC[C@]3(C)C(=CC[C@@H]4[C@@]5(C)CC[C@H](O)C(C)(C)[C@@H]5CC[C@]43C)[C@H]12` were, in that order, 39.4%, 23.1%, 11% and 12.4 µM.
The like results for `CCCCCCCCC(=O)N1CCN(CCOC(=O)[C@]23CC[C@@H](C)[C@H](C)[C@H]2C2=CC[C@@H]4[C@@]5(C)CC[C@H](O)C(C)(C)[C@@H]5CC[C@@]4(C)[C@]2(C)CC3)CC1` were, in that order, 44.2%, 12.5%, 12% and over 20 µM.
In the case of `Cc1ccccc1C(=O)N1CCN(CCOC(=O)[C@]23CC[C@@H](C)[C@H](C)[C@H]2C2=CC[C@@H]4[C@@]5(C)CC[C@H](O)C(C)(C)[C@@H]5CC[C@@]4(C)[C@]2(C)CC3)CC1`, the inhibition of growth at 10 µM in data set [1] came to 98.9%; in data set [2], 94.8%. The inhibition at 72 h, 10 µM in data set [3] was found to be 60.3%. For the same compound, the half-inhibitory concentration (IC50) in data set [4] was found to be 3.59 µM; in data set [5] (read-out: IC50) it was 5.34 µM.
The matching figures for `C[C@H]1[C@H](C)CC[C@]2(C(=O)OCCN3CCN(C(=O)/C=C/c4ccccc4)CC3)CC[C@]3(C)C(=CC[C@@H]4[C@@]5(C)CC[C@H](O)C(C)(C)[C@@H]5CC[C@]43C)[C@H]12`: 51.1%, 54.4%, 39%, 12.6 µM and 9.22 µM.
With `COc1cccc2c1C(=O)c1c(O)c3c(c(O)c1C2=O)C[C@@](O)(C(=O)CO)C[C@@H]3O[C@H]1C[C@H](N)[C@H](O)[C@H](C)O1` [DOXORUBICIN], the inhibition of growth at 10 µM in data set [1] and in data set [2] was 92.1% each time. Moreover, in data set [3], the inhibition at 72 h, 10 µM is 99.2%. Besides, the half-inhibitory concentration (IC50) came out at 0.7 µM in data set [4] and 1.28 µM in data set [5].
Turning to `COc1ccc(C(=O)N2CCN(CCOC(=O)[C@]34CC[C@@H](C)[C@H](C)[C@H]3C3=CC[C@@H]5[C@@]6(C)CC[C@H](O)C(C)(C)[C@@H]6CC[C@@]5(C)[C@]3(C)CC4)CC2)cc1OC`, the inhibition of growth at 10 µM worked out at 24.5% in data set [1] and 51.8% in data set [2]. Also, the inhibition at 72 h, 10 µM in data set [3] was 73.1%. Also, the concentration for half-maximal inhibition (IC50) in data set [5] (read-out: IC50) worked out at 11.1 µM.
On to `C[C@H]1[C@H](C)CC[C@]2(C(=O)OCCN3CCN(C(=O)c4ccncc4)CC3)CC[C@]3(C)C(=CC[C@@H]4[C@@]5(C)CC[C@H](O)C(C)(C)[C@@H]5CC[C@]43C)[C@H]12`, for which the inhibition of growth at 10 µM in data set [1] turned out to be 32.1%; in data set [2], 8.3%. Besides, the inhibition at 72 h, 10 µM in data set [3] stood at 55.4%. This compound yielded a 50% inhibitory concentration (IC50) in data set [4] of 13.3 µM.
With `C[C@H]1[C@H](C)CC[C@]2(C(=O)OCCN3CCN(C(=O)Cc4ccc(Cl)cc4)CC3)CC[C@]3(C)C(=CC[C@@H]4[C@@]5(C)CC[C@H](O)C(C)(C)[C@@H]5CC[C@]43C)[C@H]12`, the inhibition of growth at 10 µM in data set [1] is 68.6%; in data set [2], 52%. Also, the inhibition at 72 h, 10 µM in data set [3] is 2.9%. The IC50 in data set [4] stood at 8.59 µM; in data set [5] (read-out: IC50), 10 µM.
As to `C[C@H]1[C@H](C)CC[C@]2(C(=O)OCCN3CCN(C(=O)c4cccnc4Cl)CC3)CC[C@]3(C)C(=CC[C@@H]4[C@@]5(C)CC[C@H](O)C(C)(C)[C@@H]5CC[C@]43C)[C@H]12`, the values for the inhibition of growth at 10 µM in data set [1] and in data set [2] were 34.3% and 29%, respectively. The inhibition at 72 h, 10 µM in data set [3] stood at 4.3%. The compound further gave a half-inhibitory concentration (IC50) in data set [4] of 14 µM.
With `C[C@H]1[C@H](C)CC[C@]2(C(=O)OCCN3CCN(C(=O)c4c(F)cccc4Cl)CC3)CC[C@]3(C)C(=CC[C@@H]4[C@@]5(C)CC[C@H](O)C(C)(C)[C@@H]5CC[C@]43C)[C@H]12`, the inhibition of growth at 10 µM in data set [1] was 92.1%; in data set [2] it was 85.3%. Besides, in data set [3], the inhibition at 72 h, 10 µM came to 24.4%. Moreover, the IC50 in data set [4] worked out at 4.18 µM; in data set [5] (read-out: IC50) it was 4.32 µM.
With `C[C@H]1[C@H](C)CC[C@]2(C(=O)OCCN3CCN(C(=O)c4cc(Cl)ccc4[N+](=O)[O-])CC3)CC[C@]3(C)C(=CC[C@@H]4[C@@]5(C)CC[C@H](O)C(C)(C)[C@@H]5CC[C@]43C)[C@H]12`, the figures for the inhibition of growth at 10 µM in data set [1] and in data set [2] were 57.3% and 33.2%, respectively. Further, in data set [3], the inhibition at 72 h, 10 µM turned out to be 77.7%. 9.41 µM corresponded to half-maximal inhibition in data set [4] (IC50).
Turning to `C[C@H]1[C@H](C)CC[C@]2(C(=O)OCCN3CCN(C(=O)c4cc([N+](=O)[O-])cc([N+](=O)[O-])c4)CC3)CC[C@]3(C)C(=CC[C@@H]4[C@@]5(C)CC[C@H](O)C(C)(C)[C@@H]5CC[C@]43C)[C@H]12`, the inhibition of growth at 10 µM in data set [1] was 24.7%; in data set [2] it was 10.7%. For the same compound, in data set [3], the inhibition at 72 h, 10 µM turned out to be 37.2%.
Take `C[C@H]1[C@H](C)CC[C@]2(C(=O)OCCN3CCN(C(=O)c4ccccc4C(F)(F)F)CC3)CC[C@]3(C)C(=CC[C@@H]4[C@@]5(C)CC[C@H](O)C(C)(C)[C@@H]5CC[C@]43C)[C@H]12`: the inhibition of growth at 10 µM in data set [1] is 71.2%; in data set [2] it was 38.6%. The inhibition at 72 h, 10 µM in data set [3] amounted to 16.2%. For the same compound, the IC50 in data set [4] turned out to be 8.72 µM; in data set [5] (read-out: IC50), 10.9 µM.
